Series [1] in a line: Stability of sulfonated peracids in aqueous solution, half time. In kind it is physicochemical. The method, then:
A study was performed to determine the stability of various sulfonated peracids in aqueous solutions. The sulfonated peracids were compared under the same controlled conditions to determine how the structural differences of the selected peracids impacted stability. The sulfonated peracids studied included both mid-chain sulfonated and terminally sulfonated peracids.
Each peracid was tested at a concentration of 50 ppm under ambient conditions. Each individual solution was prepared from the corresponding peracid concentrate by adding it to a 0.05 M pH 5.0 citrate buffer, and adjusting the final solution pH to 5.0 with the addition of a small amount of caustic.
The peracid concentration over time was measured using a kinetic iodometric titration method. For comparison, 50 ppm peroxyacetic acid (POAA), at the same concentration and under the same conditions, was also included in the stability study. Based on the results seen in FIG. 7, the half time of each individual peracid was estimated and the results are summarized in the table below.

Series [2] is described as follows: Coupling ability study, 1-octanoic acid by liquid chromatography. Type of series: physicochemical. The following applies: for 1-Octanoic acid (ppm) coupled: 0.4 grams 1-octanoic acid added to 20 g peracid solution in hydrogen peroxide, filtered lower phase. How it is done: A study was performed to determine the coupling/hydrotropic properties of various sulfonated peracids in aqueous solutions. The ability of the selected peracids to couple octanoic acid was measured.
Twenty grams (20 g) of each peracid solution was diluted into a beaker containing hydrogen peroxide. […] To each of these solutions, 0.4 grams of 1-octanoic acid was added. The octanoic acid initially floated to the tops of the solutions. The solutions were then stirred for 5-10 minutes with magnetic stir bars at 1,000 rpm. The solutions were then centrifuged for 20 minutes at 3,000-5,000 rpm. The lower phase of each solution was then collected. The lower phases were further clarified by filtration through 0.45 micron syringe filters. All of the filtrates appeared clear and homogenous. The filtered solutions were analyzed by liquid chromatography for 1-octaonic acid.

Series [3] in a line: Contact angle study. Type of series: physicochemical. The following applies: concentrate diluted 250 times with DI water (11-SPOUA 85 times). How it is done:
A study was performed to measure the wetting properties of various sulfonated peracids in aqueous solutions, by measuring the contact angle of the individual solution on different surfaces.
A FTA32 Contact Angle Goniometer with image processing by FTA 32 software was used to measure the contact angle. The contact angle was measured on both stainless steel, and polypropylene surfaces. The peracid concentrates shown in the table below were diluted 250 times with DI water. However, the 11-SPOUA was diluted 85 times with DI water, given the lower levels of peracid precursor in the formula.
The results shown are the average of at least three contact angle measurements.

The conditions of series [4]: pH 4. From the text:
The issue of low solubility when using long chain peracids has been addressed by increasing the pH to above 7. […] Further, bleaching efficacy decreases proportionally with every pH unit increase over about 7.

The nature of series [5]: Powder storage stability at elevated temperature. In kind it is physicochemical. The settings on record: about 140° F. How it is done:
The compositions of the present invention also show enhanced stability compared to conventional peroxygen containing compositions. In some embodiments, the compositions of the present invention are stable for at least about 1 year at room temperature. In some embodiments, the compositions of the present invention are stable at about 100° F. for at least 30 days. In other embodiments, the compositions of the present invention are stable at about 140° F. for at least 30 days. For example, 11-sulfoundecanoic peroxyacid (Compound D) is stable as a powder system at about 140° F. for at least 30 days.

The nature of series [6]: Storage stability, loss of active oxygen by titrimetry. Type of series: physicochemical. The following applies: 4 weeks. How it is done:
The stability of a sulfoperoxycarboxylic acid of the present invention, i.e., 11-sulfoundecaneperoxoic acid (Compound D), was compared to that of phthalimidoperoxyhexanoic acid (PAP). The stability data for the PAP sample were taken from U.S. Pat. No. 5,994,284, assigned to Clariant GmbH. Samples of the compound of the present invention were stored for four (4) weeks at various temperatures. The loss of active oxygen was measured by titrimetry.

The conditions of series [7]: stated for comparison; cited from earlier work.
Series [8] deals with B. subtilis. The experiment in a line: Sporicidal efficacy at 14 days, EN 13704. In kind it is cell-based. The settings on record: 30 ppm peroxyoctanoic acid alone; spore species not specified. How it is done:
The test method followed was according to European Standard EN 13704: Quantitative Suspension Test for the Evaluation of Sporicidal Activity of Chemical Disinfectants and Antiseptics Used in Food, Industrial, Domestic and Institutional Areas. Generally, a test suspension of bacterial spores in a solution of interfering substance, simulating clean conditions, was added to a prepared sample of the test formulation diluted in hard water. The mixture was maintained at the specific temperature and time desired. At this contact time, an aliquot is taken; the sporicidal action in this portion was immediately neutralized or suppressed by a validated method. The number of surviving bacterial spores in each sample was determined and the reduction in viable counts was calculated. A test was run to determine the stability and sporicidal efficacy of a composition of the present invention against spores. The composition tested included the sulfonated peroleic acid product, and an amount of peroxyoctanoic acid. The test method used was the European Standard EN 13704: Quantitative Suspension Test for the Evaluation of Sporicidal Activity of Chemical Disinfectants and Antiseptics Used in Food, Industrial, Domestic and Institutional Areas, described above.

Series [9] has as its system Mycobacterium bovis BCG. Type of series: cell-based. The following applies: 300 ppm POOA, pH 6.5, room temperature.
For series [10] the following is noted: 4 weeks, data from U.S. Pat. No. 5,994,284, cited from earlier work.

Where two headings read alike, the source gives them in different places.

With `O=C(CS(=O)(=O)O)OO` [Compound 2-SPOAA, 2-Sulfoperoxyacetic acid], the half-life at 50 ppm in series [1] (buffer, pH 5) was 37 h. Also, in series [2], the “1-Octanoic acid (ppm) coupled” value is on record as 160 ppm. In addition, in [3], the “Contact Angle (degree), Polypropylene” value came to 75 degree and the “Contact Angle (degree), Stainless Steel” value amounted to 77 degree.
As for `O=C(CCCCCCCCCCS(=O)(=O)O)OO` [Compound D, 11-sulfoundecaneperoxoic acid], in series [4], the solubility entry is listed as “about 1.3%”. In addition, the “stable as a powder system” value in series [5] is listed as “at least 30 days”. The figures for the “Loss of Active Oxygen (%)” value in series [6] (38 ° C.), in series [6] (50 ° C.) and in [6] (Room Temp.) were 7.9%, 15.7% and 0.78%, respectively. Further, the half-life at 50 ppm in [1] (buffer, pH 5) is 91 h. The “1-Octanoic acid (ppm) coupled” value in [2] amounted to 890 ppm. Moreover, the “dissolution of peracid solution in hydrogen peroxide” value in series [2] (20 g of peracid solution diluted into hydrogen peroxide) was “dissolved only partially”. Moreover, the “Contact Angle (degree), Polypropylene” value in [3] was 77 degree. In addition, the “Contact Angle (degree), Stainless Steel” value in series [3] was determined as 72 degree.
In the case of `CC(=O)OO` [POAA, peroxyacetic acid], the half-life at 50 ppm in series [1] (50 ppm peracid, 0.05 M citrate buffer pH 5.0, ambient conditions, read-out: t1/2 (converted)) was 115 h. Further, the “percarboxylic acid formation constant (Keq)” value in [7] was 2.70.
For `CCCCCCCC(=O)OO` [POOA, peroxyoctanoic acid], the reduction of spores result in [8] was “did not result in a reduction”. Besides, the “Log Reduction” value in series [9] (2.5 min) is given as 3.48; in series [9] (5 min), <4.31.
As for `O=C(CCCCCN1C(=O)c2ccccc2C1=O)OO` [PAP, phthalimidoperoxyhexanoic acid], the “Loss of Active Oxygen (%)” value in series [10] (25 ° C.) is on record as 1.4%; in series [10] (40 ° C.), 2.0%; in [10] (50 ° C.), 12.0%.
For `O=C(CCCCCS(=O)(=O)O)OO` [Compound 6-SPOHXA, 6-sulfoperoxyhexanoic acid], the half-life at 50 ppm in [1] (buffer, pH 5) is 88 h. The “1-Octanoic acid (ppm) coupled” value in series [2] stood at 240 ppm. Further, in series [3], the “Contact Angle (degree), Polypropylene” value is given as 84 degree and the “Contact Angle (degree), Stainless Steel” value was 77 degree.
